Source: patent publication US20050113413A1, “Naphthalene-1,5-disulfonic acid salts of a substituted 4-amino-1-(pyridylmethyl)piperidine compound” (priority 2003, published 2005)

Tests used:
Type in all cases: physicochemical
[1] = Physical stability of salt forms (appearance upon storage in open vial); conditions: 30° C. and 60% relative humidity, listed as naphthalene-1,5-disulfonic acid salt
Experimental: The physical stability of certain salt forms was evaluated by determining any changes in appearance of the sample upon storage of the salt form at 30° C. and 60% relative humidity.
To an open vial was added 50-100 mg of each salt form. The open vials were placed in a stability chamber that was previously set at 30° C. and 60% relative humidity. At periodic intervals, the appearance of each salt form was compared to its starting appearance and any differences were recorded.

[2] = Physical stability of encapsulated pharmaceutical formulations (appearance upon storage); conditions: both 25° C. and 60% relative humidity, and ambient temperature and relative humidity
Experimental: The physical stability of encapsulated pharmaceutical formulations containing certain salt forms was evaluated by determining any changes in appearance of the pharmaceutical formulation upon storage.
Capsules containing a 1:1 mixture (wt/wt) of the salt form and microcrystalline cellulose (Avecil) were stored under of the following conditions: • (1) Capsules were placed inside an open container within a stability chamber that was previously set to 25° C. and 60% relative humidity; or • (2) Capsules were placed inside an open container on the bench top alongside a thermometer and hygrometer.
At periodic intervals, the appearance of each formulation was compared to its starting appearance and any differences were recorded.

[3] = Chemical stability of salt forms (change in purity by HPLC upon storage); conditions: 40° C. and 75% relative humidity, 7 days; for % Change in Impurity A / % Change in Impurity B / % Change in Purity of Salt: HPLC Method D; for % Change in Purity of Salt: heat sealed polyethylene bags
Experimental: The chemical stability of each salt form was evaluated by determining the change in purity of the sample upon storage of the salt form at 40° C.
Prior to storage, each salt form was analyzed by HPLC (Method D) to determine sample purity and in particular, to determine the amount of the following impurities present in the sample: • A. 3-[4-{N-[7-(3-(S)-1-Carbamoyl-1,1-diphenylmethyl)pyrrolidin-1-yl)hept-1-yl]-N-(isopropyl)amino}piperidin-1-ylmethyl]-4-methoxy-1-methylpyridinium Salt (Impurity A); • B. 4-{N-[7-(3-(S)-1-Carbamoyl-1,1-diphenylmethyl)pyrrolidin-1-yl)hept-1-yl]-N-(isopropyl)amino}-1-(4-oxo-1,4-dihydropyrid-3-ylmethyl)piperidine (Impurity B).
Approximately 50-100 mg of the salt form was then placed in two heat sealed low density polyethylene bags. The bags were then placed into a stability chamber that was previously set at 40° C. and 75% relative humidity. After 7 days, the bags were removed and the contents were analyzed by HPLC.

SMILES | Appearance Day 15 [1] | Appearance of pharmaceutical formulation upon storage (summary in words of Table III) [2] | Chemical stability (summary in words of Table I) [3] | % Change in Impurity A [3] [%] | % Change in Impurity B [3] [%] | % Change in Purity of Salt [3] [%]
COc1ccncc1CN1CCC(N(CCCCCCCN2CC[C@@H](C(C(N)=O)(c3ccccc3)c3ccccc3)C2)C(C)C)CC1.O=S(=O)(O)c1cccc2c(S(=O)(=O)O)cccc12 [Example 7] | remained a free flowing powder | remained a free flowing powder | excellent chemical stability | <0.1 | <0.1 | 0.4
COc1ccncc1CN1CCC(N(CCCCCCCN2CC[C@@H](C(C(N)=O)(c3ccccc3)c3ccccc3)C2)C(C)C)CC1.CS(=O)(=O)O.CS(=O)(=O)O [Example 9] |  |  |  | <0.1 | <0.1 | 0.9
COc1ccncc1CN1CCC(N(CCCCCCCN2CC[C@@H](C(C(N)=O)(c3ccccc3)c3ccccc3)C2)C(C)C)CC1.CS(=O)(=O)O.CS(=O)(=O)O.CS(=O)(=O)O [Example 10] |  |  |  | 9.41 | 6.59 | 16.4
COc1ccncc1CN1CCC(N(CCCCCCCN2CC[C@@H](C(C(N)=O)(c3ccccc3)c3ccccc3)C2)C(C)C)CC1.O=S(=O)(O)O [Example 11A] |  |  |  | <0.1 | 0.11 | 0.8
COc1ccncc1CN1CCC(N(CCCCCCCN2CC[C@@H](C(C(N)=O)(c3ccccc3)c3ccccc3)C2)C(C)C)CC1.O=C(O)C(O)C(O)C(=O)O [Example 11B] |  | formed a non-flowing granular cake |  | 0.26 | 0.35 | 0.8
COc1ccncc1CN1CCC(N(CCCCCCCN2CC[C@@H](C(C(N)=O)(c3ccccc3)c3ccccc3)C2)C(C)C)CC1.O=C(O)c1cc(=O)[nH]c(=O)[nH]1.O=C(O)c1cc(=O)[nH]c(=O)[nH]1 [Example 11C] |  |  |  | 0.45 | 0.49 | 1.1
COc1ccncc1CN1CCC(N(CCCCCCCN2CC[C@@H](C(C(N)=O)(c3ccccc3)c3ccccc3)C2)C(C)C)CC1.O=C(O)c1ccccc1O.O=C(O)c1ccccc1O [Example 11D] |  |  |  | 0.17 | 0.19 | 0.7
COc1ccncc1CN1CCC(N(CCCCCCCN2CC[C@@H](C(C(N)=O)(c3ccccc3)c3ccccc3)C2)C(C)C)CC1.O=C(O)c1ccccc1O.O=C(O)c1ccccc1O.O=C(O)c1ccccc1O [Example 11E] |  |  |  | 1.22 | 1.06 | 2.7
COc1ccncc1CN1CCC(N(CCCCCCCN2CC[C@@H](C(C(N)=O)(c3ccccc3)c3ccccc3)C2)C(C)C)CC1.O=C(O)c1cc(O)ccc1O.O=C(O)c1cc(O)ccc1O [Example 11F] |  |  |  | 0.21 | 0.23 | 0.4
COc1ccncc1CN1CCC(N(CCCCCCCN2CC[C@@H](C(C(N)=O)(c3ccccc3)c3ccccc3)C2)C(C)C)CC1.Cl.Cl [Example 11G] |  |  |  | 1.16 | 0.79 | 3.6
